In patent publication US20230152325A1, “Active Alpha-5-Beta-1 Integrin As A Biomarker For Enhancing Tumor Treatment Efficacy” (Institute For Cancer Research d/b/a The Research Institute …, priority 2016, published 2023):
Values belong to the compound of their own block, whether it stands above or below them.

How the values were obtained:
[1] = system: naïve pancreatic fibroblasts cultured within D-ECM; assay: ECM prompted myofibroblastic maintenance (α-SMA / F-actin immunofluorescence), PDAC model; format: cell-based, human; settings: for D-ECM induced myofibroblastic phenotype (α-SMA expression / stress fiber localization), in words: naïve cells within D-ECM treated with the agent; for α-SMA expression, Median / α-SMA stress fiber localization, Median: normalized to untreated D-ECM = 1
Description: (§1) ECM prompted myofibroblastic maintenance. Human naïve or assorted murine fibroblasts were incubated for 45 minutes prior to overnight culturing within assorted ECMs, prepared as above, in the presence or absence of 50 μg/ml SNAKA51, 60 μg/m ALULA, 250 μg/m mAb16, or BMAS diluted as instructed by the manufacturer (Millipore, Temecula, Calif.), IgG control, DMSO or small molecule inhibitors FAK (PF573,228) and SRC family kinases (PP2). ECM-induced phenotypes were assessed via RT-qPCR, Western Blot or immunofluorescence.
(§2) Naïve/innate PDAC and RCC patient harvested fibroblasts were cultured overnight within normal (N-ECM) vs. desmoplastic (D-ECM or DECMs that were produced in the presence or absence of TGFβ1-receptor inhibition (D+TGFβi) or vehicle control (D+DMSO). Alternatively, naïve cells cultured within D-ECMs were treated with either TGFβ1-receptor inhibitor (TGFβ-i), vehicle (DMSO), functional blocking antibodies anti-αvβ5 integrin (alula, αvβ5-i), anti-α5β1 integrin (mAb16, α5β1-i), combinations of both functional blocking antibodies (β5-i+α5-i), functional stabilizing anti α5β1 integrin (SNAKA51; α5β1-act) or non-immunized isotypic antibodies (IgG). All samples were subjected to indirect immunofluorescent labeling of desmoplastic marker α-SMA and counterstained with fluorescently labeled phalloidin to detect actin stress fibers (F-actin) and determine the co-localization ratio. Monochromatic “heat map” images (see, FIG. 2A) represent α-SMA intensity values. A 255 tones intensity scale bar is shown to the right. A summary of all measured values is graphed in FIG. 2B. Additional monochromatic images indicative of double labeled staining for α-SMA and F-actin are in FIG. 2C while levels of total α-SMA localized at corresponding stress fibers are plotted in FIG. 2D. Untreated D-ECM conditions were included in all experiments summarized in this figure and serve as normalization (1 arbitrary unit; a.u.) controls. Matching values including statistical significances are listed in accompanying Table 1. All scale bars represent 50 μm. TGFβ activity was needed to maintain functional D-ECM production but was dispensable when testing D-ECM induced responses, while the later were obstructed by αvβ5 integrin inhibition or active α5β1 integrin stabilization.

[2] = system: naïve renal fibroblasts cultured within D-ECM; assay: ECM prompted myofibroblastic maintenance (α-SMA / F-actin immunofluorescence), RCC model; format: cell-based, human; settings: for D-ECM induced myofibroblastic phenotype (α-SMA expression / stress fiber localization), in words: naïve cells within D-ECM treated with the agent; for α-SMA expression, Median / α-SMA stress fiber localization, Median: normalized to untreated D-ECM = 1
Description: as §1, §2

[3] = system: PDAC desmoplastic fibroblasts (D-ECM production); assay: ECM fiber orientation analysis of D-ECM produced by PDAC-associated fibroblasts; format: cell-based, human
Description: Un-extracted 3D cultures were either processed for phenotypic characterization, ECM alignment measurements, or decellularized to assess maintenance of myofibroblastic phenotype. ECM fiber orientation analysis. Fibronectin channel monochromatic images were analyzed via Imager OrientationJ plugin. Numerical outputs were normalized by setting mode angles to 0° and correcting angle spreads to fluctuate between −90° and 90°. Angle spreads for each experimental condition, corresponding to a minimum of three experimental repetitions and five image acquisitions per condition were plotted and their standard deviations calculated. The percentage of fibers oriented between −15° and 15° was determined for each normalized image-obtained data. FIGS. 1A through 1E show desmoplastic (D)-ECM remodeling by TGFβ-blockage bestows normal (N)-ECM-like phenotypes. Fibroblasts were isolated from pancreatic ductal adenocarcinoma (PDAC) and renal cell carcinoma (RCC) surgical samples and their ECM producing phenotypes were assessed prior to ECM decellularization via fibroblastic extraction. […] Complementary low/heterogeneous vs. high/organized α-SMA levels, with heterogeneous/round vs. elongated/spindled cell nuclei, and disorganized/woven vs. parallel/aligned ECM fibers are evident in the representative images. […] Scale bars represent 50 μm.

[4] = system: normal fibroblasts (N-ECM assembly); assay: N-ECM assembly by normal fibroblasts under TGFβ1-receptor blockage; format: cell-based, human; settings: blockage of TGFβ signaling during ECM production
From the text: (§3) Preparation of fibroblasts-derived 3D ECMs. Extracellular matrices (ECMs) were obtained in the presence or absence of TGFβ1R small molecule inhibitor SB431542, DMSO, conformation-dependent anti-active α5 integrin functional antibody (SNAKA51), functional-blocking anti αvβ5 integrin (ALULA), or species matched non-immunized isotypic antibodies. Un-extracted 3D cultures were either processed for phenotypic characterization, ECM alignment measurements, or decellularized to assess maintenance of myofibroblastic phenotype.
(§4) FIGS. 7A through 7F show characterization of human fibroblastic cells isolated from PDAC and RCC surgical samples. […] Isolated cells were probed for desmoplastic markers α-SMA and palladin while Panc1 (a pancreatic cancer cell line) cells were used as epithelial to mesenchyme […] (EMT) controls known to express both epithelial and mesenchymal markers. Assorted markers are shown in white while counterstained Hoechst identified nuclei are shown in yellow. […] TGFβ inhibition causes disorganization of desmoplastic and ablation of normal ECMs. […] Data were normalized to total protein concentration and to D-ECM readouts; results are expressed as arbitrary units (A.U.). […] All scale bars represent 50 μm.

[5] = system: RCC desmoplastic fibroblasts (D-ECM production); assay: ECM fiber orientation analysis of D-ECM produced by RCC-associated fibroblasts; format: cell-based, human
From the text: as §3
ECM fiber orientation analysis. Fibronectin channel monochromatic images were analyzed via Imager OrientationJ plugin. […] Angle spreads for each experimental condition, corresponding to a minimum of three experimental repetitions and five image acquisitions per condition were plotted and their standard deviations calculated. The percentage of fibers oriented between −15° and 15° was determined for each normalized image-obtained data.
FIGS. 1A through 1E show desmoplastic (D)-ECM remodeling by TGFβ-blockage bestows normal (N)-ECM-like phenotypes. Fibroblasts were isolated from pancreatic ductal adenocarcinoma (PDAC) and renal cell carcinoma (RCC) surgical samples and their ECM producing phenotypes were assessed prior to ECM decellularization via fibroblastic extraction. […]

[6] = system: TGFβ levels stored within ECMs; assay: TGFβ protein levels in 3D unextracted culture lysates by ELISA; format: cell-based, human; settings: inhibitor used during D-ECM production; <0.0001
From the text: as §4

[7] = target: αvβ5 integrin, murine (murine) (UniProt P43406); assay: cell-based or functional assay
[8] = target: alpha-v-beta-5 (αvβ5) integrin, human (human) (UniProt P06756); assay: cell-based or functional assay
[9] = target: alpha-5-beta-1 (α5β1) integrin, human (human) (UniProt P08648); assay: cell-based or functional assay
[10] = SB-431542 during D-ECM production
[11] = PDAC, naïve cells within D-ECM treated overnight
[12] = PDAC, naïve fibroblasts in D-ECM that was produced in presence of TGFβ1-receptor inhibitor
[13] = RCC, naïve cells within D-ECM treated overnight
[14] = RCC, naïve fibroblasts in D-ECM that was produced in presence of TGFβ1-receptor inhibitor

Sequence of UniProt P06756 (P06756 31-1048, chain 1 of 2): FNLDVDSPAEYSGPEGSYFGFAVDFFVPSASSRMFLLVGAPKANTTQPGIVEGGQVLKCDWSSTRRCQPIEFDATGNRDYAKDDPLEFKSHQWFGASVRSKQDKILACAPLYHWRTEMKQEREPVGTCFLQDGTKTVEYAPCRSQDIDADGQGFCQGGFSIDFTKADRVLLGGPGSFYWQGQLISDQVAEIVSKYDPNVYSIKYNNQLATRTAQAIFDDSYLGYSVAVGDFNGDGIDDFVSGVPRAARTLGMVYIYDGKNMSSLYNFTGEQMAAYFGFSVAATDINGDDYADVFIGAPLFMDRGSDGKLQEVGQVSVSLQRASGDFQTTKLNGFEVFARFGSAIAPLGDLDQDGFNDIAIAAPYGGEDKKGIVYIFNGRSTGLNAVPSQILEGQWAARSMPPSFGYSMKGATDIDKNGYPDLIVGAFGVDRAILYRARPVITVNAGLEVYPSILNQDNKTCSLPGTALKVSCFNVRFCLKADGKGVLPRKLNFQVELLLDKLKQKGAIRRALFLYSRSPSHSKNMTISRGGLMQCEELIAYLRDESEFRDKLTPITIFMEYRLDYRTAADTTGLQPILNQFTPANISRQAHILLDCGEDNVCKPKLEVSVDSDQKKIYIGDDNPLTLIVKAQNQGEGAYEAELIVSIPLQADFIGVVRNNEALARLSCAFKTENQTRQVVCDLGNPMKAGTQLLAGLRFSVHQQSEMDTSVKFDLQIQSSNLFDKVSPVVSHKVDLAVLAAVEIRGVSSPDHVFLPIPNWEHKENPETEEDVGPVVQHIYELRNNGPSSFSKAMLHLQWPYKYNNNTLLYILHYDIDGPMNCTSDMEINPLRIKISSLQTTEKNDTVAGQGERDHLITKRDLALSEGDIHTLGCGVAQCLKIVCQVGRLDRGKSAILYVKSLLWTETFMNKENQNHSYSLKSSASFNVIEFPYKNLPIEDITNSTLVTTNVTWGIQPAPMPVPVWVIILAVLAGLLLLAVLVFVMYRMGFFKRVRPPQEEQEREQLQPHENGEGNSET
Sequence of UniProt P06756 (P18084 24-799, chain 2 of 2, further chain): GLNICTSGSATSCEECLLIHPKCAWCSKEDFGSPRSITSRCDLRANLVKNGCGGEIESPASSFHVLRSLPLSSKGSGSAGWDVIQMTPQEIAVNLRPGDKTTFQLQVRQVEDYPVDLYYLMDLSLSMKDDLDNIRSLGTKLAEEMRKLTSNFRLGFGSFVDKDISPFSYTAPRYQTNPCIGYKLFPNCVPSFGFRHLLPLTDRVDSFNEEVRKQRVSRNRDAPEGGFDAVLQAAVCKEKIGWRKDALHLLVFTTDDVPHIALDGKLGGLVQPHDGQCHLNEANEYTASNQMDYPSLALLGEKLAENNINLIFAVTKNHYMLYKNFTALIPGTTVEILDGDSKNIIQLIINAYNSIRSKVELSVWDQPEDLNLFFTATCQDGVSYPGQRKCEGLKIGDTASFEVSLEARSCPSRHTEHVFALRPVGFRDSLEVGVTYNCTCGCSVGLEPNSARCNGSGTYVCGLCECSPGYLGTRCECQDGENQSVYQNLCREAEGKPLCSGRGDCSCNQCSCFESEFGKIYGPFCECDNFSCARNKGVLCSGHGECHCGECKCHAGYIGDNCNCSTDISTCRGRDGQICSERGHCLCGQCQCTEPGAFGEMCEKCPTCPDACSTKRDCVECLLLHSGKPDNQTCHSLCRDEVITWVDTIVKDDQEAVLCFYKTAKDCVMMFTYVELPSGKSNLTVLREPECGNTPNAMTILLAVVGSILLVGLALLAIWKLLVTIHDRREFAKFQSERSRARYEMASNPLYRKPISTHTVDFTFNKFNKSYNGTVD
Sequence of UniProt P08648 (P08648 42-1049, chain 1 of 2): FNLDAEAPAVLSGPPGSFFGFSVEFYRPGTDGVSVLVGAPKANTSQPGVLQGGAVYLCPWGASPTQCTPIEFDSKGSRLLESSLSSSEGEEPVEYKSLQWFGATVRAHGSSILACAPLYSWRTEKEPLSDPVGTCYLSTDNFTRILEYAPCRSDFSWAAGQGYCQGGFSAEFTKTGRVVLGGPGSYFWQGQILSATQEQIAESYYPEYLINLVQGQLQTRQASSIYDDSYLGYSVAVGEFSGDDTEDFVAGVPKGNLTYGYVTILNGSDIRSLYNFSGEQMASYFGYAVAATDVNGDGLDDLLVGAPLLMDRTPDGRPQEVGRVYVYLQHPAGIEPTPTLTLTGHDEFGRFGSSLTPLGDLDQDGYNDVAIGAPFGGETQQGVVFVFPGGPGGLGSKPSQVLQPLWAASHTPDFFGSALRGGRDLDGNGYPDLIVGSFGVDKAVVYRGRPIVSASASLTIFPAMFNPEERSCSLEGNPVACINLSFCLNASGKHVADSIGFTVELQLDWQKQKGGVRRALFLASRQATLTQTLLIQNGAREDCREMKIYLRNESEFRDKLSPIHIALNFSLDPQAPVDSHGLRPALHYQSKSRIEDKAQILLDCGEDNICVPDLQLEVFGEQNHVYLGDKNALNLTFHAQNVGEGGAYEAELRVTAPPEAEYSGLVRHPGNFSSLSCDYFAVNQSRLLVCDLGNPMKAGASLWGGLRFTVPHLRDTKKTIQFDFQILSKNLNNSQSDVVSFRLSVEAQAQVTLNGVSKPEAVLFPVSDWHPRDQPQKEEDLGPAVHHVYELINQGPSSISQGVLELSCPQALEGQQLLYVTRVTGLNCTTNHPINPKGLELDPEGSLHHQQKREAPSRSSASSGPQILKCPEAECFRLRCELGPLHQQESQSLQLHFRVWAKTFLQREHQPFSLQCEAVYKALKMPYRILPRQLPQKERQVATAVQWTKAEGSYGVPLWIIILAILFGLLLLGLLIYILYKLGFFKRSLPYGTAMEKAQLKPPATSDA
Sequence of UniProt P08648 (P05556 21-798, chain 2 of 2, further chain): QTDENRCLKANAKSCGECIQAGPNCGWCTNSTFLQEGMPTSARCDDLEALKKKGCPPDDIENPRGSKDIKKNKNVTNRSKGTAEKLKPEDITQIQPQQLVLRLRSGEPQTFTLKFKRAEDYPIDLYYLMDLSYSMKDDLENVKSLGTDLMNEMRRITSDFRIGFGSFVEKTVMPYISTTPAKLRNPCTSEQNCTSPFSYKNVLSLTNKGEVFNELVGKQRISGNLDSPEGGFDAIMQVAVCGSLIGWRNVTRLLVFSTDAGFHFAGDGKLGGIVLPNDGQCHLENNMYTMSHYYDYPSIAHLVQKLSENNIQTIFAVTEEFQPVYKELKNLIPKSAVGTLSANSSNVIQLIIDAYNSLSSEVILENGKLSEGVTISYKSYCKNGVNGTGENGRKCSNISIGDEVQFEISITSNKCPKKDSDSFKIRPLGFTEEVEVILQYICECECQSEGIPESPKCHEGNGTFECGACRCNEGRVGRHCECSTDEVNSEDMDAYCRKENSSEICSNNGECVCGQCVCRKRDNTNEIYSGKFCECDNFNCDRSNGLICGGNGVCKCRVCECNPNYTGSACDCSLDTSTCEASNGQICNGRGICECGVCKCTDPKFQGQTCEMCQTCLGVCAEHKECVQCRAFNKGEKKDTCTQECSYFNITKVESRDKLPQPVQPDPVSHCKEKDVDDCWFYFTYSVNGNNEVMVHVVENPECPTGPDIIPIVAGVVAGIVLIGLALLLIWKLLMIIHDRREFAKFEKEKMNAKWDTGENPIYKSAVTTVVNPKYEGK

Compound: CC(C)(C)n1nc(-c2ccc(Cl)cc2)c2c(N)ncnc21 [PP2]
D-ECM induced myofibroblastic phenotype (α-SMA expression / stress fiber localization), in words ([1]; PDAC): D-ECM-induced phenotype was lost
D-ECM induced myofibroblastic phenotype (α-SMA expression / stress fiber localization), in words ([2]; RCC): D-ECM-induced phenotype was lost

de novo N-ECM assembly [4]: prevented de novo N-ECM assembly
Compound: NC(=O)c1ccc(-c2nc(-c3ccc4c(c3)OCO4)c(-c3ccccn3)[nH]2)cc1 [SB-431542]
fiber alignment (fibers distributed at 15° from the mode angle) [3, 10]: 36%
ECM fiber alignments reduced to ([3]; TGFβ blockage during D-ECM production, n=21, P<0.0001): 47%
stress fiber localization of α-SMA relative to the untreated D-ECM ([1]; PDAC, D-ECM produced under TGFβ blockage, re-seeded with naïve fibroblasts): 55%
α-SMA expression, Median [1, 11]: 0.62 a.u.
α-SMA stress fiber localization, Median [1, 11]: 0.96 a.u.
D-ECM induced myofibroblastic phenotype (α-SMA expression / stress fiber localization), in words ([1]; PDAC): comparable
α-SMA expression, Median [1, 12]: 0.73 a.u.
α-SMA stress fiber localization, Median [1, 12]: 0.55 a.u.
α-SMA expression levels relative to untreated conditions ([1]; PDAC, naïve fibroblasts plated in D-ECM in presence of the agent): 62%
myofibroblastic phenotype induced de novo by the extracted ECM, in words ([1]; naïve pancreatic fibroblasts re-seeded in D-ECM produced in presence of SB-431542): comparable phenotypes
fiber alignment (fibers distributed at 15° from the mode angle) [5, 10]: 47%
ECM fiber alignments reduced to ([5]; TGFβ blockage during D-ECM production, n=26, P=0.0028): 51%
stress fiber localization of α-SMA relative to the untreated D-ECM ([2]; RCC, D-ECM produced under TGFβ blockage, re-seeded with naïve fibroblasts): 72%
α-SMA expression, Median [2, 13]: 1.00 a.u.
α-SMA stress fiber localization, Median [2, 13]: 1.03 a.u.
D-ECM induced myofibroblastic phenotype (α-SMA expression / stress fiber localization), in words ([2]; RCC): comparable
α-SMA expression, Median [2, 14]: 0.41 a.u.
α-SMA stress fiber localization, Median [2, 14]: 0.72 a.u.
α-SMA expression levels relative to untreated conditions ([2]; RCC, naïve fibroblasts plated in D-ECM in presence of the agent): 100%
myofibroblastic phenotype induced de novo by the extracted ECM, in words ([2]; naïve renal fibroblasts re-seeded in D-ECM produced in presence of SB-431542): comparable phenotypes
reduction of TGFβ levels stored within ECMs [6]: 60%

Compound: C[C@@H]1C[C@@H]([C@H](O)CC2CC(=O)NC(=O)C2)C(=O)[C@@H](C)C1 [cycloheximide]
α-SMA protein outcome in naïve fibroblasts re-plated in D-ECM, in words ([1]; overnight treatment with protein synthesis inhibitor, model not specified): did not influence outcomes

percentage of FAK-/- murine fibroblasts in mD-ECM undergoing myofibroblastic activation [7]: 14%
percentage of murine cells in mD-ECM with myofibroblast activation under FAK inhibitor PF573,228 [7]: 23%
percentage of murine fibroblasts in mD-ECM undergoing myofibroblastic activation [7]: 55%
intracellular levels of α5β1 integrin activity, PDAC [8]: 0%
intracellular levels of α5β1 integrin activity, RCC [8]: 60%
α5β1 integrin activity localized away from 3D-adhesions, PDAC (relative to D-ECM, a.u.=1) [8]: 0.32 a.u.
α5β1 integrin activity localized away from 3D-adhesions, RCC (relative to D-ECM, a.u.=1) [8]: 0.82 a.u.
α-SMA expression, PDAC, median (normalized to untreated D-ECM) [8]: 0.29 a.u.
α-SMA expression, RCC, median (normalized to untreated D-ECM) [8]: 0.58 a.u.
α-SMA stress fiber localization, PDAC, median (normalized to untreated D-ECM) [8]: 0.54 a.u.
α-SMA stress fiber localization, RCC, median (normalized to untreated D-ECM) [8]: 0.67 a.u.
Compound: ALULA, functional-blocking anti αvβ5 integrin antibody

α-SMA expression, PDAC, median (normalized to untreated D-ECM) [9]: 0.32 a.u.
α-SMA expression, RCC, median (normalized to untreated D-ECM) [9]: 0.43 a.u.
α-SMA stress fiber localization, PDAC, median (normalized to untreated D-ECM) [9]: 0.56 a.u.
α-SMA stress fiber localization, RCC, median (normalized to untreated D-ECM) [9]: 0.93 a.u.
Compound: SNAKA51, conformation-dependent anti-active α5 integrin functional antibody

α-SMA expression, PDAC, median (normalized to untreated D-ECM) [9]: 0.71 a.u.
α-SMA expression, RCC, median (normalized to untreated D-ECM) [9]: 0.53 a.u.
α-SMA stress fiber localization under FAK inhibitor PF573,228, PDAC [9]: 49%
α-SMA stress fiber localization under FAK inhibitor PF573,228, RCC [9]: 45%
α-SMA stress fiber localization, PDAC, median (normalized to untreated D-ECM) [9]: 0.77 a.u.
α-SMA stress fiber localization, RCC, median (normalized to untreated D-ECM) [9]: 0.89 a.u.
Compound: mAb16, functional blocking anti-α5β1 integrin antibody
